Reference: the Kinase Knowledgebase extract (Sharma et al. 2016)

Target: MAPK14 (human) (UniProt Q16539)
Assay: Inhibition of MAPK14 Kinase Activity

Chain of MAPK14 (human) (Q16539 whole entry, looked up): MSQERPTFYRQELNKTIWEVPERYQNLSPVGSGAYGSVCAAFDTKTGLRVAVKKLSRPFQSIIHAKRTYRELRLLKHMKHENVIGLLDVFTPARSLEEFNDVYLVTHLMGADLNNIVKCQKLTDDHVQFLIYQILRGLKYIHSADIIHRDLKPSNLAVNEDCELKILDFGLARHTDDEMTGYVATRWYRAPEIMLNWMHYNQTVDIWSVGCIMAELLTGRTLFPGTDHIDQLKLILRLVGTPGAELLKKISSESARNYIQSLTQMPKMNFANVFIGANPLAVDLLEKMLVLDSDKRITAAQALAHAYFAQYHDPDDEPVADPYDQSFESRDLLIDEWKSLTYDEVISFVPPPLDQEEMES

IC50, ≤ 10 µM:
O=C1CCC(Oc2ccc(F)cc2)CN1C1C(Cl)CCCC1Cl (configuration not stated)
Cc1cc(C)cc(CC2CN(C)C(=O)N(c3c(Cl)cccc3Cl)C2)c1 (configuration not stated)
O=C1CCC(Sc2ccc(F)cc2F)CN1c1c(Cl)ncc(CO)c1Cl (configuration not stated)
O=C1COC(Cc2ccc(F)cc2F)CN1c1c(Cl)cc(CO)cc1Cl (configuration not stated)
O=C1CCC(Sc2ccccc2)CN1c1c(Cl)ccnc1Cl (configuration not stated)
O=C1CCC(Cc2ccccc2Cl)CN1c1c(Cl)ccnc1Cl (configuration not stated)
O=C1NCC(Cc2ccc(Cl)cc2Cl)CN1c1c(Cl)cccc1Cl (configuration not stated)
CS(=O)(=O)Nc1cc(Cl)c(N2CC(Cc3ccc(F)cc3F)CCC2=O)c(Cl)c1 (configuration not stated)
CC(=O)NCc1ccccc1CC1CCC(=O)N(c2c(Cl)cccc2Cl)C1 (configuration not stated)
CNC1CC(Cl)C(N2CC(Cc3ccc(F)cc3F)CCC2=O)C(Cl)C1 (configuration not stated)
NC1CC(Cl)C(N2CC(Sc3ccc(F)cc3F)CCC2=O)C(Cl)C1 (configuration not stated)
O=C1SCC(Cc2ccc(F)cc2F)CN1c1c(Cl)ccc(O)c1Cl (configuration not stated)
Cc1cc(C#CCCOC2CCCCO2)cc(C)c1N1CC(Cc2ccc(F)cc2F)CCC1=O (configuration not stated)
Cc1cccc(C)c1N1C[C@H](Cc2ccc(F)cc2F)C[C@@H](C)C1=O
COc1ccccc1CC1CN(c2c(Cl)cccc2Cl)C(=O)CS1 (configuration not stated)
Cc1cc(C(=O)NCCN(C)C)cc(C)c1N1CC(Cc2ccc(F)cc2F)CCC1=O (configuration not stated)
O=C1NCC(Cc2ccc(F)cc2F)CN1c1c(Cl)cccc1Cl (configuration not stated)
Cc1ccc(SC2CCC(=O)N(c3c(Cl)csc3Cl)C2)c(C)c1 (configuration not stated)
CC(=O)Nc1cc(Cl)c(N2CC(Cc3ccc(F)cc3F)SCC2=O)c(Cl)c1 (configuration not stated)
O=C1CCC(Cc2ccccc2F)CN1c1c(Cl)cccc1Cl (configuration not stated)
Nc1ccc(N2CC(Cc3ccc(F)cc3F)CCC2=O)c(Cl)c1 (configuration not stated)
O=C1CCC(Cc2ccccc2)CN1c1c(Cl)ccnc1Cl (configuration not stated)
Cc1cc(C)cc(CC2CCC(=O)N(c3c(Cl)ccnc3Cl)C2)c1 (configuration not stated)
O=C1CCC(Cc2ccc(F)cc2F)CN1C1C(Cl)CC(CO)CC1Cl (configuration not stated)
Cc1cccc(C)c1N1C[C@@H](NS(=O)(=O)c2ccc(F)cc2F)CCC1=O
O=C1CCC(Sc2ccc(Cl)cc2Cl)CN1C1C(Cl)CCCC1Cl (configuration not stated)
O=C1CCC(Cc2cc(Cl)cc(Cl)c2)CN1c1c(Cl)cncc1Cl (configuration not stated)
O=C1CCC(Cc2cc(F)cc(F)c2)CN1c1c(Cl)ccnc1Cl (configuration not stated)
CCN(CC)CC(=O)Nc1cc(Cl)c(N2CC(Cc3ccc(F)cc3F)CCC2=O)c(Cl)c1 (configuration not stated)
O=C1CCC(Cc2ccccc2Cl)CN1c1c(Cl)csc1Cl (configuration not stated)
N[C@H]1C[C@@H](Cc2ccc(F)cc2F)CN(c2c(Cl)cccc2Cl)C1=O
CC(=O)Nc1cc(Cl)c(N2CC(Cc3ccc(F)cc3F)CSC2=O)c(Cl)c1 (configuration not stated)
CC(=O)Nc1ccc(CC2CCC(=O)N(c3c(Cl)cccc3Cl)C2)cc1 (configuration not stated)
CNc1ccc(Cl)c(N2CC(Cc3ccc(F)cc3F)CN(C)C2=O)c1Cl (configuration not stated)
O=C1NCC(Cc2ccccc2Cl)CN1c1c(Cl)cccc1Cl (configuration not stated)
CC(=O)NCCN(C(=O)OC(C)(C)C)c1cc(Cl)c(N2CC(Cc3ccc(F)cc3F)CCC2=O)c(Cl)c1 (configuration not stated)
COc1ccc(SC2CCC(=O)N(C3C(Cl)CCCC3Cl)C2)cc1 (configuration not stated)
CN(C)C(=O)CNc1cc(Cl)c(N2CC(Cc3ccc(F)cc3F)CCC2=O)c(Cl)c1 (configuration not stated)
O=C1CCC(Cc2ccc3ccccc3c2)CN1c1c(Cl)cncc1Cl (configuration not stated)
O=C1CCC(Sc2ccccc2F)CN1c1c(Cl)csc1Cl (configuration not stated)
O=C(Cc1ccccc1)Nc1ccc(Cl)c(N2CC(Cc3ccc(F)cc3F)OCC2=O)c1Cl (configuration not stated)
N[C@@H](CO)C(=O)Nc1cc(Cl)c(N2CC(Cc3ccc(F)cc3F)CCC2=O)c(Cl)c1 (some centres not stated)
O=C(CNc1cc(Cl)c(N2CC(Cc3ccc(F)cc3F)CCC2=O)c(Cl)c1)NO (configuration not stated)
O=C1CCC(Cc2ccc3ccccc3c2)CN1c1c(Cl)cccc1Cl (configuration not stated)
O=C1CCC(Cc2ccccc2Cl)CN1c1c(Cl)cncc1Cl (configuration not stated)
CC(=O)Nc1cc(Cl)c(N2CC(Cc3ccc(F)cc3F)CNC2=O)c(Cl)c1 (configuration not stated)
CCNC(=O)NCc1ccccc1CC1CCC(=O)N(c2c(Cl)cccc2Cl)C1 (configuration not stated)
Nc1cc(Cl)c(N2CC(Cc3ccc(F)cc3F)CNC2=O)c(Cl)c1 (configuration not stated)
COc1ccc(SC2CCC(=O)N(c3c(Cl)csc3Cl)C2)cc1 (configuration not stated)
Cc1cc2c(cc1NC(=O)NCc1ccccc1CC1CCC(=O)N(c3c(Cl)cccc3Cl)C1)C(C)(C)CCC2 (configuration not stated)
O=C1CCC(Sc2ccc(F)cc2F)CN1c1c(Cl)cncc1Cl (configuration not stated)
O=C1CCC(Sc2cccc3ccccc23)CN1c1c(Cl)csc1Cl (configuration not stated)
O=C1CCC(Sc2ccc(F)cc2F)CN1c1c(Cl)cc(CO)cc1Cl (configuration not stated)
Cc1ccc(OC2CCC(=O)N(c3c(Cl)csc3Cl)C2)cc1 (configuration not stated)
O=C1CCC(Cc2ccc(F)cc2F)CN1c1c(Cl)cc(N2CCNCC2)cc1Cl (configuration not stated)
O=C1CCC(Cc2ccc(F)cc2)CN1c1c(Cl)ccnc1Cl (configuration not stated)
O=C1CCC(Sc2ccc(F)cc2F)CN1c1c(Cl)cnc(CO)c1Cl (configuration not stated)
Cc1cc(C#CCCN(C)C)cc(C)c1N1CC(Cc2ccc(F)cc2F)CCC1=O (configuration not stated)
CC(=O)Nc1ncc(Cl)c(N2CC(Oc3ccc(F)cc3F)CCC2=O)c1Cl (configuration not stated)
O=C1CCC(Oc2cc(F)cc(F)c2)CN1c1c(Cl)ccnc1Cl (configuration not stated)
CN(C)CCCNc1cc(Cl)c(N2CC(Cc3ccc(F)cc3F)CCC2=O)c(Cl)c1 (configuration not stated)
CC(C)(C)OC(=O)Nc1ccc(Cl)c(N2CC(Cc3ccc(F)cc3F)CCC2=O)c1 (configuration not stated)
Cc1ccc(SC2CCC(=O)N(C3C(Cl)CCCC3Cl)C2)cc1 (configuration not stated)
O=C(Cc1ccccc1)Nc1cc(Cl)c(N2CC(Sc3ccc(F)cc3F)CCC2=O)c(Cl)n1 (configuration not stated)
O=C1CCC(Cc2ccc(F)cc2F)CN1C1C(Cl)CCC(O)C1Cl (configuration not stated)
O=C1CCC(Sc2cc(F)cc(F)c2)CN1c1c(Cl)cncc1Cl (configuration not stated)
Cc1ccc(CC2COC(=O)N(c3c(Cl)cccc3Cl)C2)c(C)c1 (configuration not stated)
CN1CC(Cc2cc(Cl)cc(Cl)c2)CN(c2c(Cl)cccc2Cl)C1=O (configuration not stated)
Cc1cccc(C)c1N1CC(Cc2ccc(F)cc2F)CCC1=O (configuration not stated)
Cc1cc(C(=O)NCCN(C)C)cc(C)c1N1C[C@@H](Cc2ccc(F)cc2F)C[C@@H](C)C1=O
O=C1CCC(Sc2ccc(F)cc2F)CN1c1c(Cl)cc(CO)nc1Cl (configuration not stated)
O=C1COC(Cc2ccc(F)cc2F)CN1c1c(Cl)cc(O)cc1Cl (configuration not stated)
O=C1COC(Cc2ccccc2F)CN1c1c(Cl)cccc1Cl (configuration not stated)
CC(C)(C)OC(=O)N(CC(=O)O)c1cc(Cl)c(N2CC(Cc3ccc(F)cc3F)CCC2=O)c(Cl)c1 (configuration not stated)
Cc1cc(C)cc(CC2COC(=O)N(c3c(Cl)cccc3Cl)C2)c1 (configuration not stated)
Nc1cc(Cl)c(N2CC(Cc3ccc(F)cc3F)CCC2=O)c(Cl)c1 (configuration not stated)
Cc1cc(C)cc(OC2CCC(=O)N(C3C(Cl)CCCC3Cl)C2)c1 (configuration not stated)
CC(C)(C)OC(=O)N(CC(N)=O)c1cc(Cl)c(N2CC(Cc3ccc(F)cc3F)CCC2=O)c(Cl)c1 (configuration not stated)
CN1CC(Cc2ccc3ccccc3c2)CN(c2c(Cl)cccc2Cl)C1=O (configuration not stated)
Nc1ccc(Cl)c(N2CC(Cc3ccc(F)cc3F)OCC2=O)c1Cl (configuration not stated)
NC(=O)NCCNc1cc(Cl)c(N2CC(Cc3ccc(F)cc3F)CCC2=O)c(Cl)c1 (configuration not stated)
Cc1cc(C)cc(CC2CN(c3c(Cl)cccc3Cl)C(=O)CO2)c1 (configuration not stated)
O=C1CCC(Sc2ccc(F)cc2F)CN1C1C(Cl)CC(O)CC1Cl (configuration not stated)
CN1CC(Cc2cccc3ccccc23)CN(c2c(Cl)cccc2Cl)C1=O (configuration not stated)
CN(C)CCCCc1cc(Cl)c(N2CC(Cc3ccc(F)cc3F)CCC2=O)c(Cl)c1 (configuration not stated)
O=C1COC(Cc2cc(Cl)cc(Cl)c2)CN1c1c(Cl)cccc1Cl (configuration not stated)
Cc1cc(C)cc(SC2CCC(=O)N(c3c(Cl)cccc3Cl)C2)c1 (configuration not stated)
CC(=O)NC1CC(Cl)C(N2CC(Cc3ccc(F)cc3F)CCC2=O)C(Cl)C1 (configuration not stated)
O=C1CSC(Cc2ccc(Cl)cc2Cl)CN1c1c(Cl)cccc1Cl (configuration not stated)
O=C1CCC(Sc2ccc(F)cc2F)CN1c1c(Cl)cc(O)nc1Cl (configuration not stated)
O=C1COC(Cc2ccc(Cl)cc2)CN1c1c(Cl)cccc1Cl (configuration not stated)
O=C1CCC(Oc2ccccc2)CN1c1c(Cl)cncc1Cl (configuration not stated)
O=C1CCC(Sc2ccc(Cl)cc2)CN1c1c(Cl)cccc1Cl (configuration not stated)
O=C1OCC(Cc2ccc(F)cc2F)CN1c1c(Cl)cccc1Cl (configuration not stated)
O=C1CCC(Cc2ccccc2)CN1c1c(Cl)cncc1Cl (configuration not stated)
O=C1CCC(Oc2cc(F)cc(F)c2)CN1c1c(Cl)cccc1Cl (configuration not stated)
COc1ccccc1SC1CCC(=O)N(c2c(Cl)csc2Cl)C1 (configuration not stated)
